According to patent US20050282755A1, “Compositions having antimicrobial activity and uses thereof” (priority 2004, published 2005):
In brackets after ≈: the same amount, converted by molar mass. Non-standard residues stand in square brackets, D forms with d. Residues, ends and D or L forms follow the SMILES beside them. *: point of attachment. Palmitoyl = CCCCCCCCCCCCCCCC(=O)*; Lauroyl = CCCCCCCCCCCC(=O)*; Octanoyl = CCCCCCCC(=O)*; Hexanoyl = CCCCCC(=O)*

Legend:
Type in all cases: cell-based
[1] = test system: Staphylococcus aureus ATCC 29213; assay: MIC, NCCLS M7-A6 broth microdilution, cation-adjusted Mueller Hinton broth (Table 9, no superscript); conditions: ATCC 29213
Method in brief: (§1)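 CAMHB microdilution; final inoculum 5×10^5–1×10^6 CFU/milliliter from log-phase culture; overnight, 37° C; MIC = lowest peptide conc. without visible growth (turbidity) vs no-peptide control.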

[2] = test system: Staphylococcus epidermidis ATCC 12228; assay: MIC, NCCLS M7-A6 broth microdilution (Table 9, no superscript); conditions: ATCC 12228
Method in brief: as §1

Salmonella dublin (Lane) = assay: as above
Method in brief: as §1

[3] = test system: Escherichia coli ATCC 25922; assay: as above; conditions: ATCC 25922
Method in brief: as §1

[4] = test system: Pseudomonas aeruginosa ATCC 27853; assay: as above; conditions: ATCC 27853
Method in brief: as §1

MIC S. aureus [1] [µg/mL]	MIC S. epidermidis [2] [µg/mL]	MIC S. dublin (Salmonella dublin (Lane)) [µg/mL]	MIC E. coli [3] [µg/mL]	MIC P. aeruginosa [4] [µg/mL]	Structure (SMILES)
64 (≈ 32.5 µM)	4 (≈ 2.03 µM)	8 (≈ 4.06 µM)	64 (≈ 32.5 µM)	>64	CCCCCCCCCCCCCCCC(=O)N[C@H](CCCNC(=N)N)C(=O)N[C@H](CO)C(=O)N[C@H](CCCNC(=N)N)C(=O)N[C@H](Cc1c[nH]c2ccccc12)C(=O)N[C@H](CCCNC(=N)N)C(=O)N[C@H](CC(=O)O)C(=O)N[C@@H](C(=O)N[C@H](C)C(=O)N[C@H](CCCNC(=N)N)C(=O)N[C@H](CC(N)=O)C(=O)N[C@H](Cc1ccccc1)C(=O)N[C@H](CC(C)C)C(=O)N[C@H](CCCNC(=N)N)C(N)=O)C(C)C [Peptide 191, Palmitoyl-rsrwrdvarnflr-NH2] (Palmitoyl-[dR][dS][dR][dW][dR][dD][dV][dA][dR][dN][dF][dL][dR]-NH2)
64 (≈ 30.5 µM)	32 (≈ 15.3 µM)	64 (≈ 30.5 µM)	>64	>64	CCCCCCCCCCCCCCCC(=O)NCCCC[C@@H](NC(=O)[C@@H](CCCNC(=N)N)NC(=O)[C@@H](CC(C)C)NC(=O)[C@@H](Cc1ccccc1)NC(=O)[C@@H](CC(N)=O)NC(=O)[C@@H](CCCNC(=N)N)NC(=O)[C@@H](C)NC(=O)[C@H](NC(=O)[C@@H](CC(=O)O)NC(=O)[C@@H](CCCNC(=N)N)NC(=O)[C@@H](Cc1c[nH]c2ccccc12)NC(=O)[C@@H](CCCNC(=N)N)NC(=O)[C@@H](CO)NC(=O)[C@H](N)CCCNC(=N)N)C(C)C)C(N)=O [Peptide 196, H2N-rsrwrdvarnflrk(Palmitoyl)-NH2] (H-[dR][dS][dR][dW][dR][dD][dV][dA][dR][dN][dF][dL][dR][dK](Palmitoyl)-NH2)
>64	32 (≈ 17.3 µM)	>64	64 (≈ 34.6 µM)	>64	CCCCCC(=O)N[C@H](CCCNC(=N)N)C(=O)N[C@H](CO)C(=O)N[C@H](CCCNC(=N)N)C(=O)N[C@H](Cc1c[nH]c2ccccc12)C(=O)N[C@H](CCCNC(=N)N)C(=O)N[C@H](CC(=O)O)C(=O)N[C@@H](C(=O)N[C@H](C)C(=O)N[C@H](CCCNC(=N)N)C(=O)N[C@H](CC(N)=O)C(=O)N[C@H](Cc1ccccc1)C(=O)N[C@H](CCSC)C(=O)N[C@H](CCCNC(=N)N)C(N)=O)C(C)C [Peptide 206, Hexyl-rsrwrdvarnfmr-NH2] (Hexanoyl-[dR][dS][dR][dW][dR][dD][dV][dA][dR][dN][dF][dM][dR]-NH2)
1 (≈ 0.566 µM)	2 (≈ 1.13 µM)	2 (≈ 1.13 µM)	16 (≈ 9.05 µM)	8 (≈ 4.52 µM)	CCCCCCCCCCCC(=O)N[C@H](CCCNC(=N)N)C(=O)N[C@H](C)C(=O)N[C@H](CCCNC(=N)N)C(=O)N[C@H](Cc1c[nH]c2ccccc12)C(=O)N[C@H](CCCNC(=N)N)C(=O)N[C@H](C)C(=O)N[C@@H](C(=O)N[C@H](C)C(=O)N[C@H](CCCNC(=N)N)C(=O)N[C@H](C)C(=O)N[C@H](Cc1ccccc1)C(=O)N[C@H](C)C(=O)N[C@H](CCCNC(=N)N)C(N)=O)C(C)C [Peptide 217, Lauryl-rarwravarafar-NH2] (Lauroyl-[dR][dA][dR][dW][dR][dA][dV][dA][dR][dA][dF][dA][dR]-NH2)
64 (≈ 34.7 µM)	16 (≈ 8.67 µM)	64 (≈ 34.7 µM)	>64	>64	CCCCCCCCCCCC(=O)N[C@H](CCCNC(=N)N)C(=O)N[C@H](CO)C(=O)N[C@H](C)C(=O)N[C@H](Cc1c[nH]c2ccccc12)C(=O)N[C@H](CCCNC(=N)N)C(=O)N[C@H](CC(=O)O)C(=O)N[C@@H](C(=O)N[C@H](C)C(=O)N[C@H](CCCNC(=N)N)C(=O)N[C@H](CC(N)=O)C(=O)N[C@H](Cc1ccccc1)C(=O)N[C@H](CCSC)C(=O)N[C@H](CCCNC(=N)N)C(N)=O)C(C)C [Peptide 228, Lauryl-rsawrdvarnfmr-NH2] (Lauroyl-[dR][dS][dA][dW][dR][dD][dV][dA][dR][dN][dF][dM][dR]-NH2)

The next lines start with the compound.

Structure (SMILES)	MIC S. aureus [1] [µg/mL]	MIC S. epidermidis [2] [µg/mL]	MIC S. dublin (Salmonella dublin (Lane)) [µg/mL]	MIC E. coli [3] [µg/mL]	MIC P. aeruginosa [4] [µg/mL]
CCCCCCCCCCCCCCCC(=O)NCCCC[C@H](NC(=O)[C@H](CCCNC(=N)N)NC(=O)[C@H](CC(C)C)NC(=O)[C@H](Cc1ccccc1)NC(=O)[C@H](CC(N)=O)NC(=O)[C@H](CCCNC(=N)N)NC(=O)[C@H](C)NC(=O)[C@@H](NC(=O)[C@H](CC(=O)O)NC(=O)[C@H](CCCNC(=N)N)NC(=O)[C@H](Cc1c[nH]c2ccccc12)NC(=O)[C@H](CCCNC(=N)N)NC(=O)[C@H](CO)NC(=O)[C@@H](N)CCCNC(=N)N)C(C)C)C(N)=O [Peptide 182, H2N-RSRWRDVARNFLRK(Palmitoyl)-NH2] (H-RSRWRDVARNFLRK(Palmitoyl)-NH2)	32 (≈ 15.3 µM)	4 (≈ 1.91 µM)	32 (≈ 15.3 µM)	>64	64 (≈ 30.5 µM)
CCCCCCCC(=O)NCCCC[C@H](NC(=O)[C@H](CCCNC(=N)N)NC(=O)[C@H](CCSC)NC(=O)[C@H](Cc1ccccc1)NC(=O)[C@H](CC(N)=O)NC(=O)[C@H](CCCNC(=N)N)NC(=O)[C@H](C)NC(=O)[C@@H](NC(=O)[C@H](CC(=O)O)NC(=O)[C@H](CCCNC(=N)N)NC(=O)[C@H](Cc1c[nH]c2ccccc12)NC(=O)[C@H](CCCNC(=N)N)NC(=O)[C@H](CO)NC(=O)[C@@H](N)CCCNC(=N)N)C(C)C)C(N)=O [Peptide 184, H2N-RSRWRDVARNFMRK(Octanyl)-NH2] (H-RSRWRDVARNFMRK(Octanoyl)-NH2)	64 (≈ 31.9 µM)	2 (≈ 0.998 µM)	16 (≈ 7.99 µM)	16 (≈ 7.99 µM)	>64
CCCCCC(=O)N[C@H](CCCNC(=N)N)C(=O)N[C@H](CO)C(=O)N[C@H](CCCNC(=N)N)C(=O)N[C@H](Cc1c[nH]c2ccccc12)C(=O)N[C@H](CCCNC(=N)N)C(=O)N[C@H](CC(=O)O)C(=O)N[C@@H](C(=O)N[C@H](C)C(=O)N[C@H](CCCNC(=N)N)C(=O)N[C@H](CC(N)=O)C(=O)N[C@H](Cc1ccccc1)C(=O)N[C@H](CC(C)C)C(=O)N[C@H](CCCNC(=N)N)C(N)=O)C(C)C [Peptide 188, Hexyl-rsrwrdvarnflr-NH2] (Hexanoyl-[dR][dS][dR][dW][dR][dD][dV][dA][dR][dN][dF][dL][dR]-NH2)	>64	16 (≈ 8.75 µM)	>64	64 (≈ 35 µM)	>64
CCCCCCCC(=O)N[C@H](CCCNC(=N)N)C(=O)N[C@H](CO)C(=O)N[C@H](CCCNC(=N)N)C(=O)N[C@H](Cc1c[nH]c2ccccc12)C(=O)N[C@H](CCCNC(=N)N)C(=O)N[C@H](CC(=O)O)C(=O)N[C@@H](C(=O)N[C@H](C)C(=O)N[C@H](CCCNC(=N)N)C(=O)N[C@H](CC(N)=O)C(=O)N[C@H](Cc1ccccc1)C(=O)N[C@H](CC(C)C)C(=O)N[C@H](CCCNC(=N)N)C(N)=O)C(C)C [Peptide 189, Octyl-rsrwrdvarnflr-NH2] (Octanoyl-[dR][dS][dR][dW][dR][dD][dV][dA][dR][dN][dF][dL][dR]-NH2)	32 (≈ 17.2 µM)	4 (≈ 2.15 µM)	8 (≈ 4.31 µM)	16 (≈ 8.62 µM)	32 (≈ 17.2 µM)
